Assay results taken from publication PMC12521527, “In vivo self-assembled nano-PROTAC for the dual degradation of AR and HSP90 to overcome castration-resistant prostate cancer resistance” (Signal Transduction and Targeted Therapy, 2025).
Numbered stars: 1 amine (or outer) side, 2 acyl side, 3 side chain; on linkers, the order of the positions; unused ones are H or OH. Square brackets hold non-standard residues; d marks the D form. Peptide text beside a SMILES is read from it. * marks the point of attachment. X2 = CC1(C)C(=O)N(c2ccc(C#N)c(C(F)(F)F)c2)C(=S)N1c1ccc(C(=O)*)c(F)c1; X1 = O=C1CCC(N2C(=O)c3cccc(N(CC(=O)[*:2])[*:1])c3C2=O)C(=O)N1; EuK = O=C(O)CC[C@H](NC(=O)N[C@@H](CCCCN*)C(=O)O)C(=O)O; 2Nal = N[C@@H](Cc1ccc2ccccc2c1)C(=O)O

Legend:
HSP90 = test: Western blot HSP90 degradation in 22Rv1 cells; type: cell-based
Description: All uncropped blots are presented in Supplementary Fig. 26. j, k Representative 22Rv1 cell CLSM images of the degradation of AR after incubation with FITC-labeled Psa-AR for 12 h and quantitative analysis, n = 3 per group. Scale bar: 10 μm. l, m Representative 22Rv1 cell CLSM images of the degradation of HSP90 after incubation with FITC-labeled Psa-AR for 12 h and quantitative analysis, n = 3 per group. Scale bar: 10 μm. n AR-V7 expression in 22Rv1 cells after treatment with PBS, P-AR (20 μM), Psa-AR (20 μM) or Psa-AR (20 μM) combined with MG132 (2 μM) for 48 h, as determined by western blotting. β-Actin was used as an internal reference. o Results of apoptosis in 22Rv1 cells treated with PBS, P-AR (20 μM), or Psa-AR (20 μM) for 48 h, as detected by flow cytometry.
The pretreated cells were resuspended in lysis buffer containing 50 mM Tris-HCl (pH 8.0), 150 mM NaCl, 1% (v/v) Triton X-100, and protease inhibitors. The protein concentration was determined via a BCA kit (Applygen). Each sample ([…]) was subjected to SDS‒PAGE and then transferred to a PVDF membrane. The blots were blocked in 5% (wt/v) blocking buffer. After washing three times with TBST buffer (10 mM TBS solution containing 0.1% (v/v) Tween-20), the blots were incubated with primary antibodies at 4 °C on a shaker for 16 h. […]

AR protein = molecular target: T1, AR protein (Homo sapiens, UniProt P10275); test: MST binding affinity, Psa-AR and AR protein; settings: RED-NHS-labeled AR 400 nM, PBS-T, 22 °C, n = 3, read-out: Kd, binding affinity between Psa-AR and AR
T1 sequence (P10275 1-920): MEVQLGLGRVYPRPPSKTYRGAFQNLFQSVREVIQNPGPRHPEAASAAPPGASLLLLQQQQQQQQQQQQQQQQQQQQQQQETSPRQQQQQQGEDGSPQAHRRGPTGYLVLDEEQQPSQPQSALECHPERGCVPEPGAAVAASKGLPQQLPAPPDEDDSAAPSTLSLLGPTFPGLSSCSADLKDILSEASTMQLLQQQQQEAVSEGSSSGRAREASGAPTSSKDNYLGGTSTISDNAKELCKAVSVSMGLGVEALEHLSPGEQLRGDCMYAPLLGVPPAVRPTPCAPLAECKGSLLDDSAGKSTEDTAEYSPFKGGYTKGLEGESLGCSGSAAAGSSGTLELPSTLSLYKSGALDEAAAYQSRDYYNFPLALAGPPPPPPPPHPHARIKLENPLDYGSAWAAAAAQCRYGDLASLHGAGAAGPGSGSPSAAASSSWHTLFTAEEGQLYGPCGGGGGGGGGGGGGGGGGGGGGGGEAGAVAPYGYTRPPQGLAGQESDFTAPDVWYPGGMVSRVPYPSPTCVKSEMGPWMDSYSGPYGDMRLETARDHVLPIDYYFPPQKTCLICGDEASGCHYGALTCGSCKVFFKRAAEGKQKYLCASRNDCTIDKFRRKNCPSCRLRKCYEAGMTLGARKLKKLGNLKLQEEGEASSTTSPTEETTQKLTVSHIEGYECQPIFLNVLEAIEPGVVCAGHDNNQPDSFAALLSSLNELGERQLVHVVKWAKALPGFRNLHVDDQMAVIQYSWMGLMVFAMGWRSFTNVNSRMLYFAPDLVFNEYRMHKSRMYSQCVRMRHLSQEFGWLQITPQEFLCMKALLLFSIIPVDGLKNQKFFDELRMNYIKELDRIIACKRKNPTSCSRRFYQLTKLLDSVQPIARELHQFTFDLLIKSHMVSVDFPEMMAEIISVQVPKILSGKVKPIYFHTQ
Excerpt: Fig. 3 Polynary nanocomposite (AR: Psa-AR: CRBN) formation. a Dose‒response curve for the binding interaction between Psa-AR and the AR protein; n = 3 per group. b Dose‒response curve for the binding interaction between Psa-AR and the CRBN protein; n = 3 per group. c Dose‒response curve for the binding interaction between the binary complex (Psa-AR: AR) and CRBN, n = 3 per group. d In vitro Psa-AR self-assembly, protein binding and degradation. e Representative 22Rv1 cell CLSM images of FITC-labeled Psa-AR assembly (green channel) interacting with HSP90 (red channel) and its colocalization analysis (1–1’). […] Scale bar: 10 μm.
MST (NanoTemper Technologies GmbH, Munich, Germany) was utilized to evaluate the binding affinity between Psa-AR and RED-NHS-labeled PSMA, AR, or CRBN proteins. The PSMA, AR, and CRBN proteins were labeled with the Protein Labeling Kit RED-NHS 2nd Generation (Amine Reactive). RED-PSMA, RED-AR, and RED-CRBN proteins were diluted to a final concentration of 400 nM with PBS-T buffer (0.05% Tween 20), where the fluorescence signals satisfied the typical detection limit of the Monolith NT.115 instrument (NanoTemper Technologies). The binding affinity between Psa-AR and the RED-NHS-labeled AR protein was assessed. […] Then, 10 µL of RED-CRBN was added to each sample to achieve a final concentration of 400 nM. […] The data were analyzed by NanoTemper analysis software.

`CC1(C)C(=O)N(c2ccc(C#N)c(C(F)(F)F)c2)C(=S)N1c1ccc(C(=O)NCCCC[C@H](NC(=O)CNc2cccc3c2C(=O)N(C2CCC(=O)NC2=O)C3=O)C(=O)N[C@@H](CS)C(=O)N[C@@H](CCC(N)=O)C(=O)N[C@@H](Cc2ccc(O)cc2)C(=O)N[C@@H](CC(N)=O)C(=O)N[C@@H](CCC(N)=O)C(=O)N[C@@H](Cc2ccc(O)cc2)C(=O)N[C@@H](Cc2ccc(O)cc2)C(=O)N[C@@H](Cc2ccc3ccccc3c2)C(=O)NCCCC[C@H](NC(=O)N[C@@H](CCC(=O)O)C(=O)O)C(=O)O)c(F)c1` (stereo partly drawn) [Psa-AR] (H-[X1]K(X2)CQYNQYY[2Nal]-EuK) was tested. Which HSP90 degradation (HSP90; 22Rv1, 20 μM, 48 h, western blot) did it give?
The HSP90 degradation was > 60%.

What about the “sustained HSP90 protein clearance over 96 h” value (HSP90; 22Rv1, optimal concentrations, 96 h) of the same compound?
The value was 78%.

What about the Kd (AR protein) of the same compound?
The Kd was 950 nM.
